# From ChEMBL document CHEMBL5303573, “Mapping human microbiome drug metabolism by gut bacteria and their genes” (Nature, 2019)
# Key:
# [1] = bacteroides intestinalis, 12 h, 2 µM
# Description: The drug is tested on Bacteroides intestinalis strain: DSM17393 for biotransformation. The drug concentrations were measured before and after a 12-h incubation by liquid-chromatography-coupled mass spectrometry (LC–MS)
# [2] = The drug is tested on Bacteroides cellulosilyticus strain: DSM14838 for biotransformation. The drug concentrations were measured before and after a 12-h incubation by liquid-chromatography-coupled mass spectrometry (LC–MS); conditions: 2 µM
# [3] = bacteroides thetaiotaomicron, 12 h, 2 µM
# Description: The drug is tested on Bacteroides thetaiotaomicron strain: VPI-5482 for biotransformation. The drug concentrations were measured before and after a 12-h incubation by liquid-chromatography-coupled mass spectrometry (LC–MS)
# [4] = The drug is tested on Providencia rettgeri strain: DSM1131 for biotransformation. The drug concentrations were measured before and after a 12-h incubation by liquid-chromatography-coupled mass spectrometry (LC–MS); type: ADME; design: dose 2 uM, timepoint 0 vs 12 hours; conditions: 2 µM
# [5] = The drug is tested on Ruminococcus lactaris strain: ATCC29176 for biotransformation. The drug concentrations were measured before and after a 12-h incubation by liquid-chromatography-coupled mass spectrometry (LC–MS); conditions: 2 µM
# [6] = The drug is tested on Bacteroides coprophilus strain: DSM18228 for biotransformation. The drug concentrations were measured before and after a 12-h incubation by liquid-chromatography-coupled mass spectrometry (LC–MS); conditions: 2 µM
# [7] = The drug is tested on Bacteroides ovatus strain: ATCC8483 for biotransformation. The drug concentrations were measured before and after a 12-h incubation by liquid-chromatography-coupled mass spectrometry (LC–MS); conditions: 2 µM
# [8] = The drug is tested on Ruminococcus gnavus strain: ATCC29149 for biotransformation. The drug concentrations were measured before and after a 12-h incubation by liquid-chromatography-coupled mass spectrometry (LC–MS); conditions: mediterraneibacter gnavus, 2 µM
# [9] = The drug is tested on Bifidobacterium breve strain: DSM20213 for biotransformation. The drug concentrations were measured before and after a 12-h incubation by liquid-chromatography-coupled mass spectrometry (LC–MS); conditions: 2 µM
# [10] = The drug is tested on Clostridium asparagiforme strain: DSM15981 for biotransformation. The drug concentrations were measured before and after a 12-h incubation by liquid-chromatography-coupled mass spectrometry (LC–MS); type: ADME; design: dose 2 uM, timepoint 0 vs 12 hours; conditions: enterocloster asparagiformis, 2 µM
# [11] = The drug is tested on Bacteroides uniformis strain: ATCC8492 for biotransformation. The drug concentrations were measured before and after a 12-h incubation by liquid-chromatography-coupled mass spectrometry (LC–MS); conditions: 2 µM
# [12] = The drug is tested on Bacteroides vulgatus strain: ATCC8482 for biotransformation. The drug concentrations were measured before and after a 12-h incubation by liquid-chromatography-coupled mass spectrometry (LC–MS); conditions: phocaeicola vulgatus, 2 µM
# [13] = anaerostipes sp., 12 h, 2 µM
# Description: The drug is tested on Anaerostipes sp. strain: fecal isolate for biotransformation. The drug concentrations were measured before and after a 12-h incubation by liquid-chromatography-coupled mass spectrometry (LC–MS)
# [14] = The drug is tested on Bacteroides xylanisolvens strain: DSM18836 for biotransformation. The drug concentrations were measured before and after a 12-h incubation by liquid-chromatography-coupled mass spectrometry (LC–MS); conditions: 2 µM
# [15] = bifidobacterium adolescentis, 12 h, 2 µM
# Description: The drug is tested on Bifidobacterium adolescentis strain: ATCC 15703 for biotransformation. The drug concentrations were measured before and after a 12-h incubation by liquid-chromatography-coupled mass spectrometry (LC–MS)
# [16] = The drug is tested on Dorea formicigenerans strain: ATCC27755 for biotransformation. The drug concentrations were measured before and after a 12-h incubation by liquid-chromatography-coupled mass spectrometry (LC–MS); conditions: 2 µM
# [17] = The drug is tested on Eubacterium hallii strain: DSM3353 for biotransformation. The drug concentrations were measured before and after a 12-h incubation by liquid-chromatography-coupled mass spectrometry (LC–MS); conditions: anaerobutyricum hallii, 2 µM
# [18] = The drug is tested on Alistipes indistinctus strain: DSM22520 for biotransformation. The drug concentrations were measured before and after a 12-h incubation by liquid-chromatography-coupled mass spectrometry (LC–MS); conditions: 2 µM
# [19] = The drug is tested on Bacteroides fragilis strain: HMW615 for biotransformation. The drug concentrations were measured before and after a 12-h incubation by liquid-chromatography-coupled mass spectrometry (LC–MS); conditions: 2 µM
SMILES,Bacterial Biotransformation [1],Bacterial Biotransformation [2],Bacterial Biotransformation [3],Bacterial Biotransformation [4],Bacterial Biotransformation [5],Bacterial Biotransformation [6],Bacterial Biotransformation [7],Bacterial Biotransformation [8],Bacterial Biotransformation [9],Bacterial Biotransformation [10],Bacterial Biotransformation [11],Bacterial Biotransformation [12],Bacterial Biotransformation [13],Bacterial Biotransformation [14],Bacterial Biotransformation [15],Bacterial Biotransformation [16],Bacterial Biotransformation [17],Bacterial Biotransformation [18],Bacterial Biotransformation [19]
c1ccc([C@H]2CN3CCSC3=N2)cc1 [LEVAMISOLE],Compound metabolized,Compound NOT metabolized,Compound metabolized,Compound NOT metabolized,Compound NOT metabolized,Compound metabolized,Compound metabolized,Compound NOT metabolized,Compound metabolized,Compound metabolized,Compound metabolized,Compound metabolized,Compound NOT metabolized,Compound metabolized,Compound NOT metabolized,Compound metabolized,Compound NOT metabolized,–,–
COc1cc2c(c(OC)c1OC)-c1ccc(OC)c(=O)cc1[C@@H](NC(C)=O)CC2 [COLCHICINE],Compound metabolized,–,Compound metabolized,Compound NOT metabolized,Compound NOT metabolized,Compound NOT metabolized,Compound NOT metabolized,–,Compound NOT metabolized,Compound NOT metabolized,Compound metabolized,Compound metabolized,Compound metabolized,–,Compound NOT metabolized,Compound NOT metabolized,Compound NOT metabolized,Compound NOT metabolized,–
CN(C)CCc1c[nH]c2ccc(CS(=O)(=O)N3CCCC3)cc12 [ALMOTRIPTAN],Compound NOT metabolized,–,–,Compound NOT metabolized,Compound NOT metabolized,Compound NOT metabolized,Compound NOT metabolized,Compound NOT metabolized,Compound NOT metabolized,Compound NOT metabolized,Compound NOT metabolized,Compound NOT metabolized,Compound NOT metabolized,Compound NOT metabolized,Compound NOT metabolized,Compound NOT metabolized,Compound NOT metabolized,–,–
CCC1(c2ccc(N)cc2)CCC(=O)NC1=O (configuration not stated) [AMINOGLUTETHIMIDE],Compound NOT metabolized,Compound NOT metabolized,–,Compound NOT metabolized,Compound NOT metabolized,Compound NOT metabolized,Compound NOT metabolized,Compound NOT metabolized,Compound NOT metabolized,Compound NOT metabolized,–,Compound NOT metabolized,Compound NOT metabolized,Compound NOT metabolized,Compound NOT metabolized,Compound NOT metabolized,Compound NOT metabolized,–,Compound NOT metabolized
CC(C)NCC(O)COc1ccc(CC(N)=O)cc1 (configuration not stated) [ATENOLOL],Compound NOT metabolized,Compound NOT metabolized,–,–,–,–,–,Compound NOT metabolized,Compound NOT metabolized,Compound NOT metabolized,–,Compound NOT metabolized,Compound NOT metabolized,Compound NOT metabolized,Compound NOT metabolized,Compound NOT metabolized,Compound NOT metabolized,–,–
CN(C)CCOC(c1ccc(Cl)cc1)c1ccccn1.O=C(O)/C=C\C(=O)O (configuration not stated) [CARBINOXAMINE MALEATE],Compound NOT metabolized,Compound NOT metabolized,Compound NOT metabolized,Compound NOT metabolized,Compound NOT metabolized,Compound NOT metabolized,Compound NOT metabolized,Compound NOT metabolized,Compound NOT metabolized,Compound NOT metabolized,Compound NOT metabolized,Compound NOT metabolized,Compound NOT metabolized,Compound NOT metabolized,Compound NOT metabolized,Compound NOT metabolized,Compound NOT metabolized,–,Compound NOT metabolized
CC(C)NCC(O)COc1ccc(COCCOC(C)C)cc1.CC(C)NCC(O)COc1ccc(COCCOC(C)C)cc1.O=C(O)/C=C/C(=O)O (configuration not stated) [BISOPROLOL FUMARATE],Compound NOT metabolized,Compound NOT metabolized,Compound NOT metabolized,Compound NOT metabolized,Compound NOT metabolized,Compound NOT metabolized,Compound NOT metabolized,Compound NOT metabolized,Compound NOT metabolized,–,–,Compound NOT metabolized,Compound NOT metabolized,Compound NOT metabolized,Compound NOT metabolized,Compound NOT metabolized,Compound NOT metabolized,Compound NOT metabolized,Compound NOT metabolized
CC(C)(C#N)c1cc(Cn2cncn2)cc(C(C)(C)C#N)c1 [ANASTROZOLE],Compound NOT metabolized,Compound NOT metabolized,Compound metabolized,–,Compound NOT metabolized,Compound metabolized,Compound metabolized,Compound NOT metabolized,Compound NOT metabolized,–,Compound metabolized,Compound metabolized,Compound NOT metabolized,Compound metabolized,Compound NOT metabolized,Compound NOT metabolized,Compound NOT metabolized,Compound NOT metabolized,Compound NOT metabolized
NC12CC3CC(CC(C3)C1)C2 [AMANTADINE],–,Compound metabolized,Compound NOT metabolized,–,Compound NOT metabolized,Compound NOT metabolized,Compound NOT metabolized,Compound NOT metabolized,Compound NOT metabolized,Compound NOT metabolized,Compound metabolized,Compound NOT metabolized,Compound NOT metabolized,–,Compound NOT metabolized,Compound NOT metabolized,Compound NOT metabolized,–,Compound NOT metabolized
O=C1CN2Cc3c(ccc(Cl)c3Cl)N=C2N1 [ANAGRELIDE],Compound NOT metabolized,Compound NOT metabolized,Compound NOT metabolized,Compound NOT metabolized,Compound NOT metabolized,Compound NOT metabolized,Compound NOT metabolized,Compound NOT metabolized,Compound NOT metabolized,–,–,–,Compound NOT metabolized,Compound NOT metabolized,Compound NOT metabolized,Compound NOT metabolized,Compound NOT metabolized,Compound NOT metabolized,Compound NOT metabolized
